These results are taken from patent US7285555B2, “6-aryl-7-halo-imidazo[1,2-a]pyrimidines as anticancer agents” (Wyeth Holdings Corporation, priority 2003, dated 2007).

The structures appear in SMILES notation.

The test system of one experiment is KB-8-5 cells. In words: MTS cytotoxicity test procedure with KB-8-5 cells. It is filed as cell-based, human. The following applies: MTS assay. From the text: (§1) Human cancer cell lines, unless otherwise noted, are obtained from the American Type Culture Collection (Rockville, Md.). […]
(§2) The MTS assay, which is sold in kit form by Promega (Madison, Wis.; CellTiter 96 AQueous Non-Radioactive Cell Proliferation Assay), is based on the conversion by viable cells, but not by dead cells, of the tetrazolium salt, MTS (3-(4,5-dimethylthiazol-2-yl)-5-(3-carboxymethoxyphenyl)-2-(4-sulphophenyl)-2H-tetrazolium, inner salt), into a water-soluble colored formazan which is detected by spectrophotometry. […] For the test procedure, cells are harvested by trypsinization (or, in the case of non-adherent cells, by simple resuspension), washed, counted and distributed to wells of 96-well flat-bottom microtiter plates at 1000 cells per well in 200 μL of medium. […]
(§3) After three days of culture with test compounds (day 5 overall), the MTS assay is done on all wells of the experimental plates. The absorbance values of the quadruplicate sample wells are averaged and divided by the average of the “time 0” values. […]
(Tetrazolium assays rely on reduction of a dye to a coloured formazan, in cell work by metabolically active cells.)

For a further experiment, the system named is S1 cells. In words: MTS cytotoxicity test procedure with S1 cells. The following applies: Homo sapiens, MTS assay, means of 2 independent experiments. The format is cell-based.
Source text: as §1, §2, §3

The test system of another experiment is KB-V1 cells. In words: MTS cytotoxicity test procedure with KB-V1 cells. The following applies: MTS assay. The format is cell-based, human.
Source text: Human cancer cell lines, unless otherwise noted, are obtained from the American Type Culture Collection (Rockville, Md.). The following drug-sensitive parental cell lines, and their derived drug-resistant counterparts, are obtained from the originators as listed: (a) S1 (parental line from a subclone of human colon carcinoma line LS174T) and derived S1-M1-3.2 (herein called S1-M1) which expresses the MXR drug transporter protein, are provided by Dr. L. Greenberger, Wyeth Research (Rabindran, S. K., He, H., Singh, M., Brown, E., Collins, K. I., Annable, T., and Greenberger, L. M. Reversal of a novel multidrug resistance mechanism in human colon carcinoma cells by fumitremorgin C. Cancer Res., 58: 5850-5858,1998); (b) parental HL-60 human promyelocytic leukemia line and derived HL-60/ADR, which expresses the MRP1 drug transporter protein, are provided by Dr. M. Center, University of Kansas (McGrath, T., and Center, M. S. Adriamycin resistance in HL60 cells in the absence of detectable P-glycoprotein. Biochem. Biophys. […] J. Biol. Chem., 261: 7762-7770, 1986) via Dr. L. Greenberger, Wyeth Research.
The MTS assay, which is sold in kit form by Promega (Madison, Wis.; CellTiter 96 AQueous Non-Radioactive Cell Proliferation Assay), is based on the conversion by viable cells, but not by dead cells, of the tetrazolium salt, MTS (3-(4,5-dimethylthiazol-2-yl)-5-(3-carboxymethoxyphenyl)-2-(4-sulphophenyl)-2H-tetrazolium, inner salt), into a water-soluble colored formazan which is detected by spectrophotometry. Compounds are tested at nine concentrations, in order to determine IC50 values. For the test procedure, cells are harvested by trypsinization (or, in the case of non-adherent cells, by simple resuspension), washed, counted and distributed to wells of 96-well flat-bottom microtiter plates at 1000 cells per well in 200 μL of medium. […]
as §3

A further experiment deals with KB cells. In words: SRB cytotoxicity test procedure with KB cells. The format is cell-based. The conditions noted are these: Homo sapiens, SRB assay, means of 2 independent experiments.
Source text: as §1
The SRB standard cytotoxicity assay is done according to previously reported methods (Discafani, C. M., Carroll, M. L., Floyd Jr., M. B. F., Hollander, I. J., Husain, Z., Johnson, B. D., Kitchen, D., May, M. K., Malo, M. S., Minnick Jr., A. A., Nilakantan, R., Shen, R., Wang Y-F., Wissner, A., Greenberger, L. M. Irreversible inhibition of epidermal growth factor receptor tyrosine kinase with in vivo activity by N-[4-[3-bromophenyl)amino]-6-quinaxolinyl]-2-butynamide (CL-387,785). […] Absorbance is read on a Victor V multi-label plate reader (Perkin Elmer, Gaithersburg, Md.). […]
A general note: The SRB assay estimates cell density from bound dye.

Usually IC50 stands for the concentration that inhibits the measured activity by half. The low end stands for higher potency, the high end for lower potency. As for `CN(C)CCCOc1cc(F)c(-c2c(Cl)nc3nccn3c2C2CCCCCC2)c(F)c1` [Example 6, 3-[4-(7-Chloro-5-cycloheptylimidazo[1,2-a]pyrimidin-6-yl)-3,5-difluorophenoxy]-N,N-dimethylpropan-1-amine], the IC50 in the experiment on KB-8-5 cells (Homo sapiens, KB 8.5 cells, means of 2 independent experiments) is 0.063 µM; in the experiment with S1 cells, 0.063 µM; in the experiment on KB-V1 cells (Homo sapiens, KB-V1, KB VI cells, means of 2 independent experiments), 0.204 µM. Moreover, in the experiment on KB-8-5 cells (IC50 on KB 8.5 cells/IC50 on KB cells), the “Ratio 8.5/KB” value is recorded as 1.4. Besides, in the experiment with KB-V1 cells (IC50 on KB VI cells/IC50 on KB cells), the “Ratio VI/KB” value worked out at 4.6.

Consider `CC(=O)O[C@H]1C(=O)[C@@]2(C)[C@H]([C@H](OC(=O)c3ccccc3)[C@]3(O)C[C@H](OC(=O)[C@H](O)[C@@H](NC(=O)c4ccccc4)c4ccccc4)C(C)=C1C3(C)C)[C@]1(OC(C)=O)CO[C@@H]1C[C@@H]2O` [Paclitaxel, reference compound], for which the IC50 in the experiment on KB cells amounted to 0.0022 µM.
